# Laboratory results published in US8853418B2, “Cyclopentylpyrazoles as N-type calcium channel blockers” (Janssen Pharmaceutica NV, priority 2012, dated 2014).
# Like-named read-outs stand apart in the source and are kept apart here.
# Columns and labels:
# N-type calcium channel = N-type calcium channel (Homo sapiens, UniProt Q00975); experiment: Automated Electrophysiology Assay (QPatch-HT whole-cell patch clamp; low- and high-frequency stimulation); format: cell-based
# [1] = target: N-type calcium channel (α1B (Cav2.2), β3 and α2δ subunits) (Homo sapiens, UniProt Q00975); experiment: Functional Assay: Antagonism of N-Type Calcium Channel (FDSS calcium mobilization, KCl depolarization); format: cell-based; settings: for IC50: HEK cell line, 50 mM KCl depolarization, six-point concentration-response, read-out: FDSS IC50
# Procedure, shortened: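 HEK cells stably co-expressing α1B (Cav2.2), β3 and α2δ were loaded with calcium dye, then given compound with fluorescence recorded for 5 min before 50 mM KCl depolarisation and 3 min more reading. IC50 came from six-point curves of maximal fluorescence, normalised to KCl maximum and buffer minimum.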
# [2] = 0.1 μM, high-frequency stimulation (15th pulse), read-out: QPatch at High Frequency % Inhibition
# [3] = low frequency, 0.1 μM, read-out: QPatch at Low Frequency % Inhibition
# [4] = 1 μM, high-frequency stimulation (15th pulse), read-out: QPatch at High Frequency % Inhibition
# [5] = low frequency, read-out: QPatch at Low Frequency % Inhibition
# [6] = low frequency, 1 μM, read-out: QPatch at Low Frequency % Inhibition
# [7] = 0.1 μM, high-frequency stimulation (15th pulse)
# Chain of N-type calcium channel (Q00975 whole entry): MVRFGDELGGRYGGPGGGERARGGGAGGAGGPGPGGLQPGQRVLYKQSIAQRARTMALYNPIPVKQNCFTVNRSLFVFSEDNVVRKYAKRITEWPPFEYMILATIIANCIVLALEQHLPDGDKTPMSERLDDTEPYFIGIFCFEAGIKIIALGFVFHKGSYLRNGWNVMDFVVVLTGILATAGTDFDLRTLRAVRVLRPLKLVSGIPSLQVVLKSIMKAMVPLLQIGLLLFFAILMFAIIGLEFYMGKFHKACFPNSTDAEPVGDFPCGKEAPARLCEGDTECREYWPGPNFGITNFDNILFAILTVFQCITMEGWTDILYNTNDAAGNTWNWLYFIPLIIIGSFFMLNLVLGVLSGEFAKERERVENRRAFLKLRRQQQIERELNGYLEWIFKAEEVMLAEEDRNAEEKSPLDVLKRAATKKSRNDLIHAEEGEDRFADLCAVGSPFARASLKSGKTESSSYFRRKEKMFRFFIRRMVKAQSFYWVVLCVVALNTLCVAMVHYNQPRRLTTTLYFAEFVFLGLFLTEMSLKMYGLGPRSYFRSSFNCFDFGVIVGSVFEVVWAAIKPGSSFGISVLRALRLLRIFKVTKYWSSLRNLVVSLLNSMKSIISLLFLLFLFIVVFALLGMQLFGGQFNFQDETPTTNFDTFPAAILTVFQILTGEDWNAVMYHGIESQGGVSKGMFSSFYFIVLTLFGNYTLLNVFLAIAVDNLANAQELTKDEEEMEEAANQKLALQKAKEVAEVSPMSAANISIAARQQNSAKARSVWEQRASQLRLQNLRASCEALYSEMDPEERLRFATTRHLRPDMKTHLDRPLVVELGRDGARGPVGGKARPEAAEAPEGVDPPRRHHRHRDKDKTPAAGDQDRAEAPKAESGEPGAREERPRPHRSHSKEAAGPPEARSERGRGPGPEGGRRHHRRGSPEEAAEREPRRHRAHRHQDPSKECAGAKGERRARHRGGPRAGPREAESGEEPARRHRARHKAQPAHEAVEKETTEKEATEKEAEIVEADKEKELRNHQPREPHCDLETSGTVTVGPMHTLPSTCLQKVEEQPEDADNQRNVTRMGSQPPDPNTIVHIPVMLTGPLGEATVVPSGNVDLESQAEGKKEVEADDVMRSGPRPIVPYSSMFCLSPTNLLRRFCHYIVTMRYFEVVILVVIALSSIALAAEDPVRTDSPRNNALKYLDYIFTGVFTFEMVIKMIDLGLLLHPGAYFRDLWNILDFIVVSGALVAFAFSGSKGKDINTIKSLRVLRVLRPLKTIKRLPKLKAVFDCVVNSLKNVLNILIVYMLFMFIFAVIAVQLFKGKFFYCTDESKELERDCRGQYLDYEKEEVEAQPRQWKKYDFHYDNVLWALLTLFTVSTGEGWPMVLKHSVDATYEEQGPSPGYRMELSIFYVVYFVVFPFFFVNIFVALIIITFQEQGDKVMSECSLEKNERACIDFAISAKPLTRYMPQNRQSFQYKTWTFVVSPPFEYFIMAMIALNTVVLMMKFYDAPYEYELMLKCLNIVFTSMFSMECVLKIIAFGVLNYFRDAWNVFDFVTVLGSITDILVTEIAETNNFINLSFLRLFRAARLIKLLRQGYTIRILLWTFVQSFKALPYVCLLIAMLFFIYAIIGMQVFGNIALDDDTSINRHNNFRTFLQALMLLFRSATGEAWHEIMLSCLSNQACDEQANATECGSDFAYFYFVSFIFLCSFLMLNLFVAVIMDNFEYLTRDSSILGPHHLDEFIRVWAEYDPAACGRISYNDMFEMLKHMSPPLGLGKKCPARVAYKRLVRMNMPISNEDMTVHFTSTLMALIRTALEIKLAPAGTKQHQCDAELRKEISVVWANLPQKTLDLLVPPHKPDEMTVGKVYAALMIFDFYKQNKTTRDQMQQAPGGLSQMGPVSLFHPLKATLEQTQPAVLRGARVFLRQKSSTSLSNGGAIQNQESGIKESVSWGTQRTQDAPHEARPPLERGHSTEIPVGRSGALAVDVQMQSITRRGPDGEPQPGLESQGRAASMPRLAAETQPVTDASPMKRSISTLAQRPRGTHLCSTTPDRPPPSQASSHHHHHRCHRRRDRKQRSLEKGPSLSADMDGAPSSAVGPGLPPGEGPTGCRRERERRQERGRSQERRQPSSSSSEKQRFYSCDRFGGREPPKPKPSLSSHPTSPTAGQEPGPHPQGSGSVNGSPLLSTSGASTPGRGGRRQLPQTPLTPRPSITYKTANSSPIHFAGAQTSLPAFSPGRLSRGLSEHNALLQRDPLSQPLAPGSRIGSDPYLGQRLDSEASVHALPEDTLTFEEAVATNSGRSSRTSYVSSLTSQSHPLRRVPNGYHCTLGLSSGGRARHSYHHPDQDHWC
# Chain of N-type calcium channel (P54284 whole entry partner): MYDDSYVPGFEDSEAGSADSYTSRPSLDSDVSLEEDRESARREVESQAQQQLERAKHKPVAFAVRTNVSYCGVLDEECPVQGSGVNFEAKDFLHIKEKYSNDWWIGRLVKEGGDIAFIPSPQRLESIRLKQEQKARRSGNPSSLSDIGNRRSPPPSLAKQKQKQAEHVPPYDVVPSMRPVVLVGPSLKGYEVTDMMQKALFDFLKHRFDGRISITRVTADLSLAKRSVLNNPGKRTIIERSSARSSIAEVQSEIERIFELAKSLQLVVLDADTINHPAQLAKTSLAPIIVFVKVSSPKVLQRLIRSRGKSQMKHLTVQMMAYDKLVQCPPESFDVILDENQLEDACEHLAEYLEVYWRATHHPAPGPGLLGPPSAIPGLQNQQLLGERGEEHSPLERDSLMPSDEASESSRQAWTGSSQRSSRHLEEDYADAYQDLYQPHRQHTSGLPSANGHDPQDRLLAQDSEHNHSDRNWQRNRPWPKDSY
# Chain of N-type calcium channel (P54289 25-946 partner limits assumed): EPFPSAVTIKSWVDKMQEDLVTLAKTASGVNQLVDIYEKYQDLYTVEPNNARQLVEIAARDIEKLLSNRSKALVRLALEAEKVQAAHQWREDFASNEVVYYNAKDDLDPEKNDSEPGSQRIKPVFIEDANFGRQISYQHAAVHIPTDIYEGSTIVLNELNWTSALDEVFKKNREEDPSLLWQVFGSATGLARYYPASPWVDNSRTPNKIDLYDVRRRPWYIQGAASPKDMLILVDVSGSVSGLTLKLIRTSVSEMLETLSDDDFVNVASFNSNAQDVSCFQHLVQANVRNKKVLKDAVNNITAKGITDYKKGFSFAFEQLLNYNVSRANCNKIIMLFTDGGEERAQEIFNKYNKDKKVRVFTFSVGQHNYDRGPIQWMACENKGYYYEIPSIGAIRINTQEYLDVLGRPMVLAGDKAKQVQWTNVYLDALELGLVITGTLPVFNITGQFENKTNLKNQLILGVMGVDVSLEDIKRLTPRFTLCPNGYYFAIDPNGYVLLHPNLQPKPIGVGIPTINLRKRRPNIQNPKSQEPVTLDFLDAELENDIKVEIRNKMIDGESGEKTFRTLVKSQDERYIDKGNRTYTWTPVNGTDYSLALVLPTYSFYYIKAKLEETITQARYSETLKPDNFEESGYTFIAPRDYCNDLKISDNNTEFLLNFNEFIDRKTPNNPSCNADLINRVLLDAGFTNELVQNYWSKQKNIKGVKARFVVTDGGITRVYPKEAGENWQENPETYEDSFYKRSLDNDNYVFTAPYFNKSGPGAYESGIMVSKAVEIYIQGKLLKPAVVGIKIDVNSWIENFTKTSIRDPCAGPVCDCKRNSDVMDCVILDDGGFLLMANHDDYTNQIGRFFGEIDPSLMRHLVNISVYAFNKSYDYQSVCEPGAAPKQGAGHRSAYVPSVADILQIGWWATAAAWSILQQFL
# Chain of N-type calcium channel (P54289 947-1103 partner limits assumed): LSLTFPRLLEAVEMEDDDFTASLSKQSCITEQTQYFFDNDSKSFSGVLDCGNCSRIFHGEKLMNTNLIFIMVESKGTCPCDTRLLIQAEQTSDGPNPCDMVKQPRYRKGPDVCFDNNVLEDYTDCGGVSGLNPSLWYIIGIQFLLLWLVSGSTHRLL
# Chain of N-type calcium channel (α1B (Cav2.2), β3 and α2δ subunits) (Q00975 whole entry): as the sequence (Q00975 whole entry) above
# Chain of N-type calcium channel (α1B (Cav2.2), β3 and α2δ subunits) (P54284 whole entry partner): as the sequence (P54284 whole entry partner) above
# Chain of N-type calcium channel (α1B (Cav2.2), β3 and α2δ subunits) (P54289 25-946 partner limits assumed): as the sequence (P54289 25-946 partner limits assumed) above
# Chain of N-type calcium channel (α1B (Cav2.2), β3 and α2δ subunits) (P54289 947-1103 partner limits assumed): as the sequence (P54289 947-1103 partner limits assumed) above
Structure (SMILES),inhibition at 0.1 µM (N-type calcium channel; [2]) [%],inhibition at 0.1 µM (N-type calcium channel; [3]) [%],inhibition at 0.33 µM ([1]; 0.33 μM) [%],IC50 [1] [nM],further results
"COc1ccccc1-n1nc2c(c1-c1ccc(Cl)cc1)CC1(C2)O[C@@H](C)[C@H](C)O1 [Compound 99, (4′S,5′S)-3-(4-chlorophenyl)-2-(2-methoxyphenyl)-4′,5′-dimethyl-2,6-dihydro-4H-spiro[cyclopenta[c]pyrazole-5,2′-[1,3]dioxolane]]",34,-4,93,13,–
"COc1ccccc1-n1nc2c(c1-c1ccc(Cl)cc1)CC1(C2)O[C@H](C)C[C@@H](C)O1 (stereo partly drawn) [Compound 100, (4′R,6′R)-3-(4-chlorophenyl)-2-(2-methoxyphenyl)-4′,6′-dimethyl-2,6-dihydro-4H-spiro[cyclopenta[c]pyrazole-5,2′-[1,3]dioxane]]",69,46,101,4.4,"inhibition at 0.01 µM (N-type calcium channel; high-frequency stimulation (15th pulse), read-out: QPatch at High Frequency % Inhibition): 21%; inhibition at 1 µM (N-type calcium channel; [4]): 83%; inhibition at 0.01 µM (N-type calcium channel; [5]): 10%; inhibition at 1 µM (N-type calcium channel; [6]): 72%"
"COc1ccccc1-n1nc2c(c1-c1ccc(Cl)cc1)CC1(C2)O[C@@H](C)C[C@H](C)O1 (stereo partly drawn) [Compound 101, (4′S,6′S)-3-(4-chlorophenyl)-2-(2-methoxyphenyl)-4′,6′-dimethyl-2,6-dihydro-4H-spiro[cyclopenta[c]pyrazole-5,2′-[1,3]dioxane]]",40,3,98,27,–
"COc1ccccc1-n1nc2c(c1-c1ccc(Cl)cc1)CC1(C2)O[C@@H](C)[C@@H](C)O1 (stereo partly drawn) [Compound 102, (4′R,5′S)-3-(4-chlorophenyl)-2-(2-methoxyphenyl)-4′,5′-dimethyl-2,6-dihydro-4H-spiro[cyclopenta[c]pyrazole-5,2′-[1,3]dioxolane]]",–,–,97,7.6,inhibition at 1 µM (N-type calcium channel; [4]): 58%; inhibition at 1 µM (N-type calcium channel; [6]): 42%
"COc1ccccc1-n1nc2c(c1-c1ccc(Cl)cc1)CC1(C2)O[C@@H](C)[C@@H](C)O1 (stereo partly drawn) [Compound 103, (4′R,5′S)-3-(4-chlorophenyl)-2-(2-methoxyphenyl)-4′,5′-dimethyl-2,6-dihydro-4H-spiro[cyclopenta[c]pyrazole-5,2′-[1,3]dioxolane]]",46,12,–,4.8,"QPatch at High Frequency % Inhibition (N-type calcium channel; 1 μM, high-frequency stimulation (15th pulse)): 69%; inhibition at 0.01 µM (N-type calcium channel; [5]): -21%; QPatch at Low Frequency % Inhibition (N-type calcium channel; low frequency, 1 μM): 36%; % Inhibition (%) at 0.33 μM ([1]; 0.33 μM): 101%"
"COc1ccccc1-n1nc2c(c1-c1ccc(C#N)cc1)CC(CC(C)C)C2 (stereo not drawn) [Compound 105, 4-[2-(2-methoxyphenyl)-5-(2-methylpropyl)-2,4,5,6-tetrahydrocyclopenta[c]pyrazol-3-yl]benzonitrile]",20,-1,81,46,inhibition at 1 µM (N-type calcium channel; [4]): 40%; inhibition at 1 µM (N-type calcium channel; [6]): 10%
"COc1ccccc1-n1nc2c(c1-c1ccc(Cl)cc1)CC1(C2)O[C@H]2CCCC[C@H]2O1 (stereo partly drawn) [Compound 112, (3aR,7aS)-3′-(4-chlorophenyl)-2′-(2-methoxyphenyl)-2′,3a,4,5,6,6′,7,7a-octahydro-4′H-spiro[1,3-benzodioxole-2,5′-cyclopenta[c]pyrazole]]",26,7,–,–,inhibition at 0.33 µM [1]: 90%

# Now from value to compound, other results behind:
inhibition at 0.1 µM (N-type calcium channel; [2]) [%],inhibition at 0.1 µM (N-type calcium channel; [3]) [%],inhibition at 0.33 µM ([1]; 0.33 μM) [%],IC50 [1] [nM],Structure (SMILES),further results
33,34,92,3,"COc1ccccc1-n1nc2c(c1-c1ccc(N(C)C)cc1)CC1(C2)OC(C)(C)C(C)(C)O1 [Compound 107, 4-[2-(2-methoxyphenyl)-4′,4′,5′,5′-tetramethyl-2,6-dihydro-4H-spiro[cyclopenta[c]pyrazole-5,2′-[1,3]dioxolan]-3-yl]-N,N-dimethylaniline]",–
13,3,86,10,"CCOc1ccc(-c2c3c(nn2-c2ccccc2OC)CC2(C3)OC(C)(C)C(C)(C)O2)cn1 [Compound 108, 3-(6-ethoxypyridin-3-yl)-2-(2-methoxyphenyl)-4′,4′,5′,5′-tetramethyl-2,6-dihydro-4H-spiro[cyclopenta[c]pyrazole-5,2′-[1,3]dioxolane]]",–
9,8,84,19,"COc1ccccc1-n1nc2c(c1-c1ccc(C)nc1)CC1(C2)OC(C)(C)C(C)(C)O1 [Compound 109, 2-(2-methoxyphenyl)-4′,4′,5′,5′-tetramethyl-3-(6-methylpyridin-3-yl)-2,6-dihydro-4H-spiro[cyclopenta[c]pyrazole-5,2′-[1,3]dioxolane]]",–
1,-9,90,2.8,"COc1ccccc1-n1nc2c(c1-c1ccc(N(C)C)nc1)CC1(C2)OC(C)(C)C(C)(C)O1 [Compound 110, 5-[2-(2-methoxyphenyl)-4′,4′,5′,5′-tetramethyl-2,6-dihydro-4H-spiro[cyclopenta[c]pyrazole-5,2′-[1,3]dioxolan]-3-yl]-N,N-dimethylpyridin-2-amine]",–
21,-5,90,3.7,"COc1ccccc1-n1nc2c(c1-c1ccc(C#N)cc1)CC1(C2)OC(C)(C)C(C)(C)O1 [Compound 111, 4-[2-(2-methoxyphenyl)-4′,4′,5′,5′-tetramethyl-2,6-dihydro-4H-spiro[cyclopenta[c]pyrazole-5,2′-[1,3]dioxolan]-3-yl]benzonitrile]",–
3,-4,82,42,"COc1ccccc1-n1nc2c(c1-c1ccc(Cl)cc1)CC1(C2)O[C@H]2CCC[C@@H]2O1 [Compound 113, (3aS,6aS)-3′-(4-chlorophenyl)-2′-(2-methoxyphenyl)-2′,4,5,6,6′,6a-hexahydro-3aH,4′H-spiro[cyclopenta[d][1,3]dioxole-2,5′-cyclopenta[c]pyrazole]]",–
–,–,90,5,"COc1ccccc1-n1nc2c(c1-c1ccc(Cl)cc1)CC1(C2)O[C@H]2CCC[C@H]2O1 (stereo partly drawn) [Compound 114, (3aR,6aS)-3′-(4-chlorophenyl)-2′-(2-methoxyphenyl)-2′,4,5,6,6′,6a-hexahydro-3aH,4′H-spiro[cyclopenta[d][1,3]dioxole-2,5′-cyclopenta[c]pyrazole]]","QPatch at High Frequency % Inhibition (N-type calcium channel; [7]): 65%; QPatch at Low Frequency % Inhibition (N-type calcium channel; low frequency, 0.1 μM): 44%"
–,–,–,11,"COc1ccccc1-n1nc2c(c1-c1ccc(Cl)cc1)CC1(C2)O[C@H]2CCC[C@H]2O1 (stereo partly drawn) [Compound 115, (3aR,6aS)-3′-(4-chlorophenyl)-2′-(2-methoxyphenyl)-2′,4,5,6,6′,6a-hexahydro-3aH,4′H-spiro[cyclopenta[d][1,3]dioxole-2,5′-cyclopenta[c]pyrazole]]","QPatch at High Frequency % Inhibition (N-type calcium channel; [7]): 37%; QPatch at Low Frequency % Inhibition (N-type calcium channel; low frequency, 0.1 μM): 8%; % Inhibition (%) at 0.33 μM ([1]; 0.33 μM): 85%"
26,2,91,19,"COc1ccccc1-n1nc2c(c1-c1ccc(Cl)cc1)CC(N1CCC(F)(F)C1)C2 (stereo not drawn) [Compound 123, 3-(4-chlorophenyl)-5-(3,3-difluoropyrrolidin-1-yl)-2-(2-methoxyphenyl)-2,4,5,6-tetrahydrocyclopenta[c]pyrazole]",–
